Values after ≈ are worked out from the molar mass of the structure shown. Active and inactive are the calls of the source. The rule behind the calls is not given here. Positions of bridges follow the written chain, without caps; N, C: chain ends. Non-standard residues stand in square brackets, D forms with d. Residues, ends and D or L forms follow the SMILES beside them. Arg(Nω-βLac) = N=C(NCCC[C@H](N)C(=O)O)N[C@@H]1O[C@H](CO)[C@@H](O[C@@H]2O[C@H](CO)[C@H](O)[C@H](O)[C@H]2O)[C@H](O)[C@H]1O; S5 = C=CCCC[C@](C)(N)C(=O)O
Legend:
Staphylococcus aureus [1] = test: Antimicrobial activity against methicillin-resistant Staphylococcus aureus ATCC 43300 assessed as growth inhibition measured after 8 hrs incubation by standard broth dilution assay; assay type: functional
[2] = Hemolytic activity in BALB/c mouse red blood cells assessed as hemolysis incubated for 1 hrs; assay type: toxicity, cell-based, Erythrocyte; conditions: read-out: HD50
Staphylococcus aureus [3] = test: In vivo antibacterial activity against methicillin-resistant Staphylococcus aureus ATCC 43300 infected locally in full thickness skin wound mouse model assessed as reduction in inflammatory cells in wound at 4 mg/kg treated with absorbable gelatin sponge measured after 7 days; assay type: functional, organism-based; conditions: time 7.0 day
Cell membrane [4] = test: Binding affinity to Klebsiella pneumoniae ATCC 13883 cell membrane treated with FITC labelled peptides at MIC measured after 1.5 hr by CLSM imaging analysis; assay type: subcellular
Cell membrane [5] = test: Induction of cell membrane damage in methicillin-resistant Staphylococcus aureus ATCC 43300 assessed as increase in red fluorescence at MIC measured after 1 hr incubation by PI based assay; assay type: subcellular
Cell membrane [6] = test: Induction of cell membrane damage in methicillin-resistant Staphylococcus aureus ATCC 43300 assessed as corrugation, blebbing, breakage, and fragmentation at MIC measured after 1 hr incubation by Scanning electron microscopy; assay type: subcellular
Staphylococcus aureus [7] = test: Antibiofilm activity in methicillin-resistant Staphylococcus aureus ATCC 43300 assessed as prevention of biofilm formation at 0.5 to 4 times of MIC measured after 24 hrs by crystal violet staining based assay; assay type: functional, organism-based
Klebsiella pneumoniae [8] = test: Antibiofilm activity in Klebsiella pneumoniae ATCC 13883 assessed as reduction in biofilm formation at 4.6 ug/ml measured after 24 hrs by crystal violet staining based assay relative to control; assay type: functional; set-up: scale not given: the % may be the effect or the level left; conditions: dose 4.6 µg/ml
Staphylococcus aureus [9] = test: Antibacterial activity against methicillin-resistant Staphylococcus aureus ATCC 43300 assessed as reduction in bacterial count at 4.6 ug/ml in bio-film adjusted BM2 medium; assay type: functional, organism-based; conditions: dose 4.6 µg/ml
Staphylococcus aureus [10] = test: In vivo antibacterial activity against methicillin-resistant Staphylococcus aureus ATCC 43300 infected locally in full thickness skin wound mouse model assessed as clean and less exudate at 1 mg/kg treated with absorbable gelatin sponge measured on early healing stage; assay type: functional, organism-based; conditions: route id
Staphylococcus aureus [11] = test: In vivo antibacterial activity against methicillin-resistant Staphylococcus aureus ATCC 43300 infected locally in full thickness skin wound mouse model assessed as reduced skin damage by promoting wound healing at 4 mg/kg treated with absorbable gelatin sponge measured on early healing stage; assay type: functional, organism-based; conditions: route id
Staphylococcus aureus [12] = test: In vivo antibacterial activity against methicillin-resistant Staphylococcus aureus ATCC 43300 infected locally in full thickness skin wound mouse model assessed as reduction in bacterial load in skin wound at 1 mg/kg treated with absorbable gelatin sponge measured after 7 days; assay type: functional, organism-based; conditions: time 7.0 day
Klebsiella pneumoniae [13] = test: In vivo antibacterial activity against Klebsiella pneumoniae ATCC 13883 induced bacterial pneumonia mouse model assessed as reduction in bacterial load in lungs at 1 mg/kg, injected into trachea after 24 hrs of infection measured after 3 to 7 days; assay type: functional, organism-based
Klebsiella pneumoniae [14] = test: In vivo antibacterial activity against Klebsiella pneumoniae ATCC 13883 induced bacterial pneumonia mouse model assessed as reduction in bacterial infection induced weight loss at 4 mg/kg, injected into trachea after 24 hrs of infection measured after 3 to 7 days; assay type: functional, organism-based
Klebsiella pneumoniae [15] = test: In vivo antibacterial activity against Klebsiella pneumoniae ATCC 13883 induced bacterial pneumonia mouse model assessed as reduction in bacterial infection induced IL-6 level in lung tissue at 4 mg/kg, injected into trachea after 24 hrs of infection measured after 3 to 7 days; assay type: functional, organism-based

Compound: CC(=O)N[C@@H](CCCCN)C(=O)N[C@@H](CCCCN)C(=O)N[C@@H](CCCNC(=N)N)C(=O)N[C@H](C(=O)N[C@@H](CCCCN)C(=O)N[C@@H](CCCCN)C(=O)N[C@@H](CCCNC(=N)N)C(=O)N[C@@]1(C)CCC/C=C\CCC[C@@](C)(C(=O)N[C@@H](CCCCN)C(=O)N[C@@]2(C)CCC/C=C\CCC[C@@](C)(C(=O)N[C@@H](CC(C)C)C(=O)N[C@@H](CCCCN)C(=O)N[C@@H](CCCCN)C(=O)N3CCC[C@H]3C(=O)N[C@H](C(=O)N[C@@H](CCCNC(=N)N[C@@H]3O[C@H](CO)[C@@H](O[C@@H]4O[C@H](CO)[C@H](O)[C@H](O)[C@H]4O)[C@H](O)[C@H]3O)C(N)=O)C(C)C)NC(=O)[C@H](CCCNC(=N)N)NC(=O)[C@H](Cc3c[nH]c4ccccc34)NC(=O)[C@H](Cc3ccc(O)cc3)NC2=O)NC(=O)[C@H](CC(C)C)NC(=O)[C@H](CCCCN)NC(=O)[C@H](Cc2ccccc2)NC1=O)C(C)C (Ac-KKRVKKR[S5]FKL[S5]K[S5]YWR[S5]LKKPV[Arg(Nω-βLac)]-NH2; staple (Z) 8-12, 14-18)
- MIC (Staphylococcus aureus [1]): 1.1 µg/mL (≈ 0.31 µM)
- HC50 at 1 h [2]: 87.6 µg/mL
- Activity (Staphylococcus aureus [3]): Active
- Activity (Cell membrane [4]): Active; Compound Exhibited Brighter Red
- Activity (Cell membrane [5]): Active
- Activity (Cell membrane [6]): Active
- Activity (Staphylococcus aureus [7]): Dose-dependent-effect
- Activity (Klebsiella pneumoniae [8]): 98.18%
- Activity (Staphylococcus aureus [9]): inactive
- Activity (Staphylococcus aureus [10]): Active; Model Group Showed Yellowish Compared With The Wounds Treated With Compound
- Activity (Staphylococcus aureus [11]): Active
- Activity (Staphylococcus aureus [12]): Active
- Activity (Klebsiella pneumoniae [13]): Active; Compound Showed Superior Therapeutic Effect Than Slp-0
- Activity (Klebsiella pneumoniae [14]): Active
- Activity (Klebsiella pneumoniae [15]): Active

— ChEMBL document CHEMBL6153110, “Peptide Double-Stapling and Arginine N-Glycosylation Triggered the Development of Therapeutic Antimicrobial Peptides Capable of Killing Drug-Resistant Bacteria in Mice” (J Med Chem, 2025)
